Values after ≈ are worked out from the molar mass of the structure shown.
What was measured:
C. albicans ATCC 10231 [1] = test: Propidium iodide influx assay (SYTO 9/PI); format: cell-based, Candida albicans; settings: 8 μg/mL, 5 min
Method: Influx of PI in C. albicans ATCC 10231 treated with compound 1 was evaluated using a commercial kit, which includes fluorescent nucleic acid stains SYTO™ 9 and PI, and measurements were conducted in a fluorescence microplate reader. […] The ability of PI to penetrate cells with damaged membranes makes it suitable for studying the effect of drugs on cell membranes.
In order to assess membrane integrity by the PI influx assay, a commercial kit was used (LIVE/DEAD® BacLight™ Bacterial Viability Kit, for microscopy & quantitative assays, Invitrogen by Thermo Fisher Scientific, Waltham, MA, USA), which includes fluorescent nucleic acid stains SYTO® 9 and PI. Briefly, C. albicans ATCC 10231 colonies from overnight cultures in SDA were suspended in sterile saline and adjusted to 0.5 McFarland. This suspension was then diluted in RPMI (1:50 followed by 1:20) to achieve a final concentration of 0.5-2.5×10^3 CFU/mL and the tubes were incubated overnight at 36° C. in a water bath with shaking. The following day, the cell suspensions were centrifuged at 3500 rpm for 15 min, the supernatant was removed, and the cells were carefully resuspended in 2 mL of 0.85% NaCl (VWR International, Radnor, PA, USA) prepared in ultrapure water. An aliquot of this suspension was then added to each tube of 0.85% NaCl alone (control) or 0.85% NaCl plus an appropriate amount of test compound, in a 1:10 proportion. […] Fluorescence intensity of the stained yeast suspensions was obtained in a microplate reader (Synergy HT, BioTek Instruments) by two consecutive measurements: with excitation wavelength 485 nm and emission wavelength 528 nm (SYTO® 9) and with excitation wavelength 485 nm and emission wavelength 590 nm (PI). Data were analyzed by subtracting background fluorescence from each sample, dividing fluorescence intensity of SYTO® 9 by fluorescence intensity of PI, and are presented as a percentage of control. […]

C. albicans ATCC 10231 [2] = test: Ergosterol binding assay; format: cell-based, Candida albicans
Method: Ceragenins have been described to interact with the lipophilic environment of microbial membranes and ergosterol is the major sterol component of fungal plasma membrane, and the target of several antifungals. As such, in order to evaluate the ability of compound 1 to bind to membrane ergosterol of C. albicans ATCC 10231, MICs were determined in the absence and presence of exogenous ergosterol ([FIG. 10]). If the tested compound has the ability to perturb membrane integrity by binding to ergosterol, is expected that, in the presence of exogenous ergosterol, the compound binds to it, decreasing the amount of compound available to bind to membrane ergosterol, therefore increasing the MIC. Amphotericin B was used as a positive control for this assay and MICs obtained were 8 times higher in the presence of 400 μg/mL of exogenous ergosterol than in its absence (2 to 16 μg/mL, data not shown). […] The ability of compound 1 to bind to membrane ergosterol of C. albicans ATCC 10231, was evaluated by the ergosterol binding assay, as previously described. Briefly, MICs of compound 1 were determined by broth microdilution, as described above, in the absence and presence of ergosterol (Sigma-Aldrich, St. Louis, MO, USA) at a final concentration of 400 μg/mL. Ergosterol was prepared immediately before being added to the plates, by maceration and dissolution in DMSO. The formed emulsion was then homogenized, heated to increase solubility, and diluted in RPMI. Amphotericin B was used as positive control. Plates were incubated at 35° C. for 48 h and MICs were determined as described above. At least two independent assays were performed.

C. albicans ATCC 10231 [3] = test: Mitochondrial dehydrogenases activity, MTT reduction assay; format: cell-based, Candida albicans; settings: 8 μg/mL, 2 h
Method: In order to determine whether compound 1 could also affect mitochondrial function, MTT reduction assay was performed. In this assay, tetrazolium salts are reduced to purple formazan derivatives by mitochondrial dehydrogenases, which can be measured spectrophotometrically and reported to mitochondrial activity and, indirectly, to cell viability. In this assay, cells were exposed to the test compounds for 2 h ([FIG. 11]). […] An increase in reactive oxygen species (ROS) has been linked to azoles activity: even though their primary mode of action is the inhibition of ergosterol synthesis, they also induce accumulation of ROS, which enhances their antifungal activity and translates into an increase in mitochondrial activity at inhibitory concentrations. […] Mitochondrial dehydrogenase activity was evaluated by the MTT assay, as previously described, with some modifications. Cell suspensions of C. albicans ATCC 10231 were prepared in the same manner as described above and, after overnight incubation at 36° C., were centrifuged at 3500 rpm for 15 min, the supernatant was removed, and the cells were carefully resuspended in 2 mL of RPMI. Test conditions and controls were the same as described above, but the time of exposure to the test compounds was 2 h. After the exposure time, cell suspensions were centrifuged at 3500 rpm for 10 min, the supernatant was removed, and 500 μL of MTT solution (0.5 mg/mL in RPMI, at 35° C.) (Thiazolyl Blue Tetrazolium Bromide, Alfa Aesar, Ward Hill, MA, USA) were added. After a 1 h incubation at 35° C., the insoluble formazan product resulting from the conversion of MTT by mitochondrial dehydrogenases of metabolically active cells was solubilized with 300 μL of DMSO. 100 μL of each sample were transferred in duplicate to a microtiter plate and the extent of the reduction of MTT to formazan was quantified by measuring the absorbance at 570 nm. Three independent assays were performed in duplicate, and the results are expressed as percentage of MTT reduction, using the untreated cells as control.

E. coli ATCC 25922 = test: Checkerboard synergy with erythromycin; format: cell-based, Escherichia coli; settings: Escherichia coli
Method: The combined effect of compound 1 and CTX for E. coli SA/2, VAN for E. faecalis B3/101, COL for E. coli 2252, erythromycin for E. coli ATCC 25922, and OXA for S. aureus 66/1 was evaluated by the checkerboard method. […] The interaction between compound 1 and erythromycin was assessed for E. coli ATCC 25922. Gram-negative bacteria are intrinsically resistant to erythromycin, a macrolide that inhibits protein synthesis, and cannot penetrate the outer membrane of Gram-negative bacteria, which is impermeable to hydrophobic antibiotics. Ascertain ceragenins have been previously described to be able to enhance the efficacy of such antibiotics, this possibility was investigated for compound 1 and a FICI of 0.6 was obtained.

## C[C@@H]1[C@H](O)[C@@H](C)/C=C/C=C/C=C/C=C/C=C/C=C/C=C/[C@H](O[C@@H]2O[C@H](C)[C@@H](O)[C@H](N)[C@@H]2O)C[C@@H]2O[C@](O)(C[C@@H](O)C[C@@H](O)[C@H](O)CC[C@@H](O)C[C@@H](O)CC(=O)O[C@H]1C)C[C@H](O)[C@H]2C(=O)O [Amphotericin B]
C. albicans ATCC 10231 [1]
  reduction of SYTO 9/PI ratio vs untreated control: statistically significant
C. albicans ATCC 10231 [2]; 400 μg/mL ergosterol vs absence
  increase of MIC in the presence of exogenous ergosterol: 8 times
C. albicans ATCC 10231 [2]; absence of exogenous ergosterol
  MIC: 2 µg/mL (≈ 2.16 µM)
C. albicans ATCC 10231 [2]; presence of 400 μg/mL of exogenous ergosterol
  MIC: 16 µg/mL
C. albicans ATCC 10231 [3]
  mitochondrial activity (MTT reduction) vs untreated control: significantly reduced

## C[C@@H](c1ncncc1F)[C@](O)(Cn1cncn1)c1ccc(F)cc1F [VRC, voriconazole]
C. albicans ATCC 10231 [3]
  mitochondrial activity (MTT reduction) vs untreated control: identical effect

## CC[C@H]1OC(=O)[C@H](C)[C@@H](O[C@H]2C[C@@](C)(OC)[C@@H](O)[C@H](C)O2)[C@H](C)[C@@H](O[C@@H]2O[C@H](C)C[C@H](N(C)C)[C@H]2O)[C@](C)(O)C[C@@H](C)C(=O)[C@H](C)[C@@H](O)[C@]1(C)O [erythromycin, reference compound]
E. coli ATCC 25922; ATCC25922, E. coli ATCC 25922, erythromycin alone
  MIC: 16 µg/mL
E. coli ATCC 25922; ATCC25922, E. coli ATCC 25922, with 16 μg/mL of compound 1 (½×MIC)
  MIC: 0.125 µg/mL

— patent publication US20250002450A1, “CATIONIC STEROID COMPOUNDS, METHOD OF OBTAINING THEREOF, FORMULATIONS COMPRISING THEREOF AND THEIR USES” (UNIVERSIDADE DO PORTO, priority 2021, published 2025)
